Test results as given in patent US8367696B2, “Aza-bridged-ring compound” (Astellas Pharma Inc., priority 2007, dated 2013).

Tests used:
[1] = tested on: carbachol-induced airway contraction; test: Test of rat airway contraction (carbachol-induced rise in airway pressure); format: in vivo; conditions: for Inhibition rate, carbachol-induced airway contraction inhibitory action: evaluation after 24 hours from administration into the trachea of 0.5 μg/kg of a drug; for ID50, carbachol-induced airway contraction inhibitory action: evaluation after 3 hours from oral administration, carbachol 30 μg/kg i.v.
Description: a. Test of Rat Airway Contraction
Male SD rats (250 to 400 g) were anesthetized by the intraperitoneal administration of pentobarbital sodium (Nembutal; 50 mg/kg), and the major airway was dissected. An airway cannula was intubated into the trachea, and the pressure in the airway was measured by a pressure transducer. After administration of pancuronium bromide (0.2 mg/kg, i.v.), a stable pressure in the airway was obtained before the experiment was initiated. For the experiment, by administration into the external maxillary vein/administration into the duodenum/oral administration/administration into the airway, physiological saline (in the case of oral administration/administration into the duodenum, distilled water) or a compound to be tested was administered, and after 5 to 30 minutes in the case of intravenous administration, after 0.25 to 6 hours in the case of oral administration into the duodenum, and after 0.25 to 72 hours in the case of administration into the airway, carbachol was intravenously administered at a dose (volume) of 30 μg/kg (1 mL/kg), and the pressures in the airway were then measured, respectively, for a period of 5 minutes. […]

[2] = target: muscarinic M3 receptor (Rattus norvegicus, UniProt P08483); conditions: receptor binding antagonistic experiment, [3H]-N-methylscopolamine, rat membrane specimen, 25° C. 2 hours
Sequence of muscarinic M3 receptor (P08483 whole entry): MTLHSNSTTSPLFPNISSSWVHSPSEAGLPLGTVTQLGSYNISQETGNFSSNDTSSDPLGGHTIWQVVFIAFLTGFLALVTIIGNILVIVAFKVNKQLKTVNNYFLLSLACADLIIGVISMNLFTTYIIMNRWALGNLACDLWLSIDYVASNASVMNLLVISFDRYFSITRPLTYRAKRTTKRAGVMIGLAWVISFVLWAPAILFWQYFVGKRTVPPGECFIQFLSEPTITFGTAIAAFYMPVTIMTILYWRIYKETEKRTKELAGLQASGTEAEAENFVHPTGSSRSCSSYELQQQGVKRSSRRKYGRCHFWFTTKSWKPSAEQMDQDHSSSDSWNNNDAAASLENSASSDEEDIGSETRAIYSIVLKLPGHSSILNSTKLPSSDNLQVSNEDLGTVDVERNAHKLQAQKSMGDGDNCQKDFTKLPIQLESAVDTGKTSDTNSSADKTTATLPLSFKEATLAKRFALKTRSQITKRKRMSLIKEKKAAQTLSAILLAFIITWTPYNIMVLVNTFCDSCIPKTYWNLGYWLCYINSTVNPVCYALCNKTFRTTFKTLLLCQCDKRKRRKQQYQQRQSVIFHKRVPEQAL
Description: Test of Muscarinic Receptor Affinity (In Vitro)
The submandibular gland/heart and the cerebral cortex were harvested from male SD rats (Japan SLC, Inc.) and a 10-fold volume of a 25 mM Tris buffer (pH=7.4, hereinafter referred to as a Tris buffer) containing 3.75 mM magnesium chloride was added thereto, followed by homogenization under ice-cooling. Centrifugation was performed at 1,000 g, 4° C. for 10 minutes, and then ultracentrifugation was performed at 100,000 g, 4° C. for 30 minutes. This precipitate was suspended in a Tris buffer and stored at −80° C. After this, it was melted in use, and tested.
A membrane specimen of any one of the submandibular gland, the heart, and the cerebral cortex, [^3H]-N-methylscopolamine (N-methylscopolamine) and a compound to be tested were incubated in 0.3 mL of a Tris buffer at 25° C. for 2 hours, and suction-filtered through a glass filter (Whatman GF/B), and the filter was washed 8 times with 0.3 mL of a Tris buffer. The radioactivity of [^3H]-N-methylscopolamine adsorbed on the filter was measured with Top Count. Further, the receptor-specific binding was determined by adding 1 μM N-methylscopolamine. […]

Row | SMILES | Inhibition rate, carbachol-induced airway contraction inhibitory action [1] [%] | ID50, carbachol-induced airway contraction inhibitory action [1] [mg/kg] | other results
1 | O=C(Nc1ncsc1-c1ccccc1)OC12CC[N+](CCOc3ccccc3)(CC1)CC2 [Example 46] | 90 | – | –
2 | O=C(Nc1ncsc1-c1ccccc1)OC12CCCN(CC1)CC2 [Example 14, 1-azabicyclo[3.2.2]non-5-yl(5-phenyl-1,3-thiazol-4-yl)carbamate] | – | 0.027 | –
3 | C[N+]12CCC(OC(=O)Nc3ncsc3-c3cccc(Cl)c3)(CC1)CC2 [Example 32] | 82 | – | –
4 | Cl.O=C(Nc1ccsc1-c1ccccc1)OCC1CN2CCC1CC2 (centres unmarked) [Example 136] | – | 0.68 | –
5 | O=C(Nc1ncsc1-c1ccccc1)OC12CCN(CC1)CC2 [Example 95] | – | – | Ki [2]: 200 pM
6 | C[N+]12CCC(OC(=O)Nc3ncsc3-c3cc(F)ccc3F)(CC1)CC2.[I-] [Example 57] | 64 | – | –
7 | C[N+]12CCCC(OC(=O)Nc3ncsc3-c3ccccc3)(CC1)CC2.[I-] [Example 65] | 61 | – | –
8 | Cl.O=C(Nc1ncsc1-c1ccccc1)OCC12CCN(CC1)CC2 [Example 6, 1-azabicyclo[2.2.2]oct-4-ylmethyl(5-phenyl-1,3-thiazol-4-yl)carbamate hydrochloride] | – | 0.1 | –
9 | Cl.O=C(Nc1ncsc1-c1ccccc1)OCC1CN2CCCC1C2 (centres unmarked) [Example 264] | – | 0.21 | –
10 | O=C(Nc1ccsc1-c1ccccc1)OCC1C[N+]2(CCCc3ccccc3)CCC1CC2 (centres unmarked) [Example 43] | 64 | – | –
11 | Cl.O=C(Nc1ncsc1-c1ccc(F)cc1)OC12CCN(CC1)CC2 [Example 156] | – | 0.091 | –
12 | O=C(Nc1ncsc1-c1cccc(Cl)c1)OC12CC[N+](CCOc3ccccc3)(CC1)CC2.[Br-] [Example 66] | 80 | – | –
13 | O=C(Nc1ncsc1-c1ccccc1)OC12CC[N+](CCc3ccccc3)(CC1)CC2 [Example 50] | 61 | – | –
14 | Cl.O=C(Nc1ncsc1-c1ccccc1)OC1C2CC3CC1CN(C3)C2 (centres unmarked) [Example 110] | – | 0.41 | –
